What all share (test): DTP human tumour cell line panel, 48 h
The test system of assay [1] is MCF7 breast.
Assay [2] relates to DU-145 prostate.
The subject of assay [3] is MDA-MB-435.
For assay [4], the system named is BT-549 breast.
The test system of assay [5] is PC-3 prostate.
Assay [6] deals with HS 578T breast.
For assay [7], the system named is DMS 114 small cell lung.
In assay [8] the test system is SNB-78 CNS.
Assay [9] concerns KM20L2 colon.
The test system of assay [10] is DMS 273 small cell lung.
Assay [11] relates to DLD-1 colon.

Our source for the GI50 and TGI values is PubChem BioAssay (NCI).

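Values below derive from 48-hour exposures of cells grown in 96-well plates, with endpoints linearly interpolated between the two concentrations bracketing the appropriate inhibition level. GI50 = concentration required for 50% inhibition of growth. Definition used: TGI = concentration required for complete inhibition of growth.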

As a reminder, the GI50 is the concentration at which growth is held to half of that of the control. Usually TGI stands for the concentration giving total growth inhibition. With `Cc1cc(I)cc(CN(C)CCCCN2CCCCC2)c1O`, the GI50 in [1] is 13.6 µM; in assay [2], 26.8 µM; in assay [3], 3.5 µM; in assay [4], 8.05 µM; in assay [5], 15 µM; in assay [6] it was 8.9 µM. The TGI in assay [1] was 30 µM; in assay [2], greater than 100 µM; in assay [3], 12.9 µM; in assay [4], 21.5 µM; in assay [5], 32 µM; in [6] it was 23.5 µM.
Turning to `Nc1ccccc1SC(C[N+](=O)[O-])c1ccc2c(c1)OCO2` (centres undefined), the TGI in [1] came to 12.4 µM; in assay [2] it was 8.77 µM; in assay [3] it was 9.35 µM; in [4], 15.2 µM; in assay [5] it was 20.6 µM; in [6], 36.8 µM.
`Cc1nc2ccccc2c(N)c1-c1cc(C)c2c(C)nc3ccccc3c2n1`: the GI50 is 0.675 µM in [1]; 0.479 µM in assay [2]; 1.51 µM in assay [3]; 1.05 µM in assay [4]; 1.02 µM in [5]; 0.891 µM in assay [6]. Besides, the TGI came out at 2.06 µM in [1]; 1.67 µM in assay [2]; 2.86 µM in assay [3]; 2.46 µM in assay [4]; 3.1 µM in assay [5].
As for `CN(C)C(=N)c1ccccc1`, the TGI in assay [7], in assay [8], in assay [9] and in assay [10] was greater than 100 µM throughout.
`O=C(/C=C/C12c3ccccc3C(c3ccccc31)C1C(=O)NC(=O)C12)c1ccncc1` (centres undefined): the GI50 in assay [1] was 2.25 µM; in assay [2], 2.8 µM; in [3], 2.9 µM; in assay [4], 2.06 µM; in assay [5] it was 1.97 µM; in assay [6], 3.04 µM. Moreover, the TGI came to 12.6 µM in [1]; 11.8 µM in [2]; 8.36 µM in assay [3]; 5.93 µM in assay [4]; 5.4 µM in assay [5]; 19.8 µM in [6].
Regarding `Cc1coc2c1CC1(C)C(CCC(O)C1C)C2` (centres undefined), the TGI in [1], in [2], in assay [3], in [4], in [5] and in assay [6] was greater than 100 µM in each case.
`COc1ccc(C(=O)Cn2c(C(=O)c3ccccc3)nc(-c3ccc(OC)cc3)c2-c2ccc(OC)cc2)cc1`: the GI50 is greater than 100 µM in [1]; greater than 100 µM in [2]; greater than 100 µM in assay [3]; greater than 100 µM in assay [4]; greater than 100 µM in assay [5]; 45.6 µM in [6]. For the same molecule, the TGI in assay [1], in assay [2], in assay [3], in assay [4], in assay [5] and in assay [6] was greater than 100 µM throughout.
For `O=C1CC(c2ccc3c(c2)OCO3)Nc2ccccc21` (centres undefined), the GI50 in assay [1] is 4.96 µM; in [2], 3.1 µM; in [3], 4.94 µM; in [4] it was 5.99 µM; in [5], 3.83 µM; in [6] it was 17.8 µM. For the same molecule, the TGI is 36.7 µM in assay [1]; 12.6 µM in assay [2]; 31.1 µM in [3]; 55.5 µM in assay [4]; 36.6 µM in assay [5]; 77 µM in assay [6].
With `O=C1C2C(C(=O)N1OS(=O)(=O)c1ccccc1)N(Cc1ccccc1)C(=O)N2Cc1ccccc1` (centres undefined), the TGI in assay [7], in assay [8], in assay [9] and in [11] was greater than 100 µM throughout.
For `CCCCC(=O)OCC(=O)[C@]1(O)Cc2c(O)c3c(c(O)c2[C@@H](OC2CC(NC(=O)C(F)(F)F)C(O)C(C)O2)C1)C(=O)c1c(OC)cccc1C3=O` (some centres undefined), the total growth inhibition concentration (TGI) in assay [7] is 1.66 µM; in assay [9], greater than 100 µM; in assay [2] it was 2.44 µM; in [3], greater than 100 µM; in assay [10], 3.39 µM; in [11], 13.2 µM. Further, the TGI in assay [4] was found to be 9.7 µM; in assay [5], 16.9 µM; in assay [6], 5.05 µM.
With `COC1=CC(c2ccc[nH]2)=N/C1=C\c1[nH]c(C)c(C(=O)OC(C)C)c1C`, the GI50 in assay [1] is 0.0487 µM; in assay [2], 0.0609 µM; in assay [3], 0.0349 µM; in assay [4], 0.061 µM; in assay [5], 0.0633 µM; in assay [6], 0.0445 µM. Also, the TGI turned out to be 1.9 µM in assay [1]; 6.47 µM in assay [2]; 0.386 µM in assay [3]; 2.68 µM in assay [4]; 4.7 µM in [5]; 0.34 µM in [6].
Consider `COC1=CC(=O)c2nc(-c3ccncc3)[nH]c2C1=O`, for which the GI50 in assay [1] was greater than 100 µM; in [2], greater than 100 µM; in [3] it was greater than 100 µM; in [4], greater than 100 µM; in [5] it was greater than 100 µM; in [6], 60 µM. In addition, the concentration for total growth inhibition (TGI) in assay [1], in assay [2], in [3], in [4], in [5] and in assay [6] was greater than 100 µM each time.
For the molecule `O=C1C(Cl)=C(Nc2cccc(Cl)c2)C(=O)N1Cc1ccc(Cl)cc1Cl`, the GI50 is 1.24 µM in assay [1]; 5.87 µM in assay [2]; 1.24 µM in [3]; 0.0663 µM in [4]; 2.94 µM in assay [5]; 1.23 µM in assay [6]. Besides, the concentration for total growth inhibition (TGI) in assay [1] is 41.5 µM; in [2], 18.2 µM; in assay [3] it was 16 µM; in [4] it was 7.48 µM; in [5], greater than 50.3 µM; in assay [6] it was 22.9 µM.
